Data from ChEMBL document CHEMBL6115002, “Discovery of novel sitolactone derivative leading to PANoptosis and differentiation of acute myeloid leukemia cells” (Eur J Med Chem, 2025).
Active and inactive are the calls of the source. No cut-off for these calls is given here.

What was measured:
[1] = Antiproliferative activity against mouse WEHI-3 cells assessed as inhibition cell proliferation incubated for 72 hrs by MTT assay; format: functional, cell-based; details: WEHI-3, 72 h
[2] = test system: MV4-11; assay: Antiproliferative activity against human MV4-11 cells assessed as inhibition cell proliferation incubated for 72 hrs by MTT assay; format: functional, cell-based; details: MV4-11, 72 h
[3] = test system: Kasumi 1; assay: Antiproliferative activity against human Kasumi 1 cells assessed as inhibition cell proliferation incubated for 72 hrs by MTT assay; format: functional, cell-based; details: Kasumi 1, 72 h
[4] = Permeability of compound in human Caco-2 cells; format: ADME, cell-based
[5] = test system: HCT-116; assay: Inhibition of tumor sphere formation in human HCT-116 cells at 1.25 uM incubated for 24 hrs; format: functional, cell-based
[6] = Oral bioavailability in male Sprague-Dawley rat at 200 mg/kg measured after 18 hrs LC/MS-MS analysis; format: ADME, organism-based; details: in vivo
[7] = Cmax in male Sprague-Dawley rat at 50 mg/kg, iv measured after 18 hrs LC/MS-MS analysis; format: ADME, organism-based; details: in vivo
[8] = test system: Mus musculus; assay: Antitumor activity against Balb/c mouse implanted with mouse WEHI-3 cells assessed as reduction in splenomegaly at 100 to 200 mg/kg, po administered once daily for 15 days; format: functional, organism-based; details: dose 100-200 mg/kg, time 15.0 day
[9] = AUC (0 to t) in male Sprague-Dawley rat at 50 mg/kg, iv measured after 18 hrs LC/MS-MS analysis; format: ADME, organism-based; details: in vivo
[10] = test system: WEHI-3; assay: Antitumor activity against mouse WEHI-3 cells implanted in Balb/c mouse assessed as reduction in liver metastasis at 100 to 200 mg/kg, po administered daily for 15 days by H and E staining based analysis; format: functional, organism-based; details: dose 100-200 mg/kg, time 15.0 day
[11] = test system: Mus musculus; assay: Antitumor activity against Balb/c mouse implanted with mouse WEHI-3 cells assessed as reduction in hepatomegaly at 100 to 200 mg/kg, po administered once daily for 15 days; format: functional, organism-based; details: dose 100-200 mg/kg, time 15.0 day
[12] = Half life in male Sprague-Dawley rat at 50 mg/kg, iv measured after 18 hrs LC/MS-MS analysis; format: ADME, organism-based; details: in vivo
[13] = test system: Mus musculus; assay: Antitumor activity against Balb/c mouse implanted with mouse WEHI-3 cells assessed as reduction in splenomegaly at 1 mg/kg, po administered once daily for 15 days; format: functional, organism-based; details: time 15.0 day
[14] = AUC(0 to t) in male Sprague-Dawley rat at 200 mg/kg, po measured after 18 hrs LC/MS-MS analysis; format: ADME, organism-based; details: in vivo
[15] = Cmax in male Sprague-Dawley rat at 200 mg/kg, po measured after 18 hrs LC/MS-MS analysis; format: ADME, organism-based; details: in vivo
[16] = Half life in male Sprague-Dawley rat at 200 mg/kg, po measured after 18 hrs LC/MS-MS analysis; format: ADME, organism-based; details: in vivo
[17] = test system: Kasumi 1; assay: Induction of […] in human Kasumi 1 cells assessed as activation of p-RIPK3 level at 25 to 50 uM incubated for 24 hrs by Western blotting analysis; format: functional, cell-based; details: dose 25-50 µM
[18] = test system: Kasumi 1; assay: Induction of apoptosis in human Kasumi 1 cells assessed as increase in cleaved PARP-1 level incubated for 24 hrs by Western blotting analysis; format: functional, cell-based; details: dose 25-50 µM
[19] = test system: Kasumi 1; assay: Induction of apoptosis in human Kasumi 1 cells assessed as increase in caspase-3 level incubated for 24 hrs by Western blotting analysis; format: functional, cell-based; details: dose 25-50 µM
[20] = test system: Kasumi 1; assay: Induction of […] in human Kasumi 1 cells assessed as activation of p-MLKL level at 25 to 50 uM incubated for 24 hrs by Western blotting analysis; format: functional, cell-based; details: dose 25-50 µM
[21] = test system: WEHI-3; assay: Induction of apoptosis in mouse WEHI-3 cells assessed as increase in cleaved PARP-1 level incubated for 24 hrs by Western blotting analysis; format: functional, cell-based; details: dose 25-50 µM
[22] = test system: Mus musculus; assay: Antitumor activity against Balb/c mouse implanted with mouse WEHI-3 cells assessed as reduction in hepatomegaly at 1 mg/kg, po administered once daily for 15 days; format: functional, organism-based; details: time 15.0 day
[23] = test system: WEHI-3; assay: Induction of […] in mouse WEHI-3 cells assessed as activation of p-MLKL level at 25 to 50 uM incubated for 24 hrs by Western blotting analysis; format: functional, cell-based; details: dose 25-50 µM
[24] = test system: WEHI-3; assay: Induction of apoptosis in mouse WEHI-3 cells assessed as increase in caspase-3 level incubated for 24 hrs by Western blotting analysis; format: functional, cell-based; details: dose 25-50 µM
[25] = test system: WEHI-3; assay: Induction of […] in mouse WEHI-3 cells assessed as activation of p-RIPK3 level at 25 to 50 uM incubated for 24 hrs by Western blotting analysis; format: functional, cell-based; details: dose 25-50 µM
[26] = test system: Kasumi 1; assay: Upregulation of SMARCA4 protein level in human Kasumi 1 cells by pull down based Western blotting analysis; format: functional, cell-based
[27] = test system: Kasumi 1; assay: Upregulation of SMARCA2 protein level in human Kasumi 1 cells by pull down based Western blotting analysis; format: functional, cell-based
[28] = test system: Kasumi 1; assay: Upregulation of SMARCB1 protein level in human Kasumi 1 cells by pull down based Western blotting analysis; format: functional, cell-based

C=C1C[C@@H]2[C@@H](CC[C@]3(C)[C@@H](OC(c4ccccc4)(c4ccc(OC)cc4)c4ccc(OC)cc4)CC[C@@H]23)OC1=O
IC50 [1]: 0.94 µM
IC50 [2]: 3.04 µM
IC50 [3]: 1.46 µM
permeability [4]: Permeable
inhibition [5]: inactive

CC(C)[Si](O[C@H]1CC[C@H]2[C@@H]3CC(CN4CCC[C@H]4CO)C(=O)O[C@@H]3CC[C@]12C)(C(C)C)C(C)C (stereo partly drawn)
bioavailability [6]: 68.6%
Cmax [7]: 12100 ng/mL
Activity [8]: Active
AUC(0-t) at 18 h [9]: 7150 ng·h/mL
Activity [10]: Active
Activity [11]: Active
half-life [12]: 16.3 min
Activity [13]: Active
AUC(0-t) at 18 h [14]: 19600 ng·h/mL
Cmax [15]: 17700 ng/mL
half-life [16]: 59.8 min

COC(=O)C[C@](O)(CCCC(C)(C)O)C(=O)O[C@@H]1C(OC)=C[C@]23CCCN2CCc2cc4c(cc2[C@H]13)OCO4
Activity [17]: inactive
Activity [18]: Dose-dependent-effect
Activity [19]: Dose-dependent-effect
Activity [20]: inactive
Activity [21]: Dose-dependent-effect
Activity [22]: Active
Activity [23]: inactive
Activity [24]: Dose-dependent-effect
Activity [25]: inactive

C=C1C[C@@H]2[C@@H](CC[C@]3(C)[C@@H](OC(c4ccccc4)(c4ccccc4)c4ccccc4)CC[C@@H]23)OC1=O
IC50 [1]: 1.03 µM
IC50 [2]: 2.68 µM
IC50 [3]: 1.85 µM
permeability [4]: Permeable
inhibition [5]: inactive

C=C1C[C@@H]2[C@@H](CC[C@]3(C)[C@@H](O[Si](OC)(OC)OC)CC[C@@H]23)OC1=O
IC50 [1]: > 20 µM
IC50 [2]: > 20 µM
IC50 [3]: > 20 µM

C=C1C[C@@H]2[C@@H](CC[C@]3(C)[C@@H](OS(=O)(=O)c4cccs4)CC[C@@H]23)OC1=O
IC50 [1]: 8.25 µM
IC50 [2]: 8.71 µM
IC50 [3]: 9.32 µM

C=C[Si](C)(C)O[C@H]1CC[C@H]2[C@@H]3CC(=C)C(=O)O[C@@H]3CC[C@]12C
IC50 [1]: > 20 µM
IC50 [2]: > 20 µM
IC50 [3]: > 20 µM

CC(C)[Si](O[C@H]1CC[C@H]2[C@@H]3CC(CCCc4cn(CCOCCOCCOCCNC(=O)CCCC[C@@H]5SC[C@@H]6NC(=O)N[C@@H]65)nn4)C(=O)O[C@@H]3CC[C@]12C)(C(C)C)C(C)C (stereo partly drawn)
Activity [26]: Active
Activity [27]: Active
Activity [28]: Active

C=C1C[C@@H]2[C@@H](CC[C@]3(C)[C@@H](OC=O)CC[C@@H]23)OC1=O
IC50 [1]: 13.7 µM
IC50 [2]: > 20 µM
IC50 [3]: 16.4 µM

C=C1C[C@@H]2[C@@H](CC[C@]3(C)[C@@H](O[Si](C)(C)CCCCCCCCCCCCCCCCCC)CC[C@@H]23)OC1=O
IC50 [1]: 6.25 µM
IC50 [2]: 8.89 µM
IC50 [3]: 5.93 µM
